According to patent publication US20250199015A1, “CYCLIN-DEPENDENT KINASE 2 INHIBITORS FOR MEDICAL TREATMENT” (INCYCLIX BIO, LLC, priority 2022, published 2025):
≈ marks a conversion by molar mass, not a printed value. Like-named read-outs stand apart in the source and are kept apart here.

Experiments:
[1] = tested on: BT474 human breast carcinoma cells; assay: Crystal violet colony assay; type: cell-based
Protocol: The T47D human breast carcinoma cell line was grown in RPMI-1640/1× Glutamax/1× Insulin/10% fetal bovine serum and was plated at 10,000 cells/well in Corning 6 well tissue culture treated plates. The BT474 human breast carcinoma cell line was grown in DMEM/1× Glutamax/1× Insulin/10% fetal bovine serum and was plated at 25,000 cells/well in Corning 6 well tissue culture treated plates. Cells were incubated at 37° C. for 24 hours prior to addition of treatment. […] Plates were collected at week 2 and 3, at week 3, 2 plates with only CDK4/6i were switched to combination treatment. The remaining plates were collected at weeks 5 and 8. Collection was performed by washing wells with PBS before incubating 5 minutes with 0.1% crystal violet/20% methanol. Dye was removed and wells washed 4 times with PBS before being scanned at 1200 dpi. Image J was used to count the % area and colony size for each well. Graph pad was used for analysis.

[2] = tested on: COV318 cells; assay: Cell cycle by EdU flow cytometry; type: cell-based, human; settings: 10 nM to 10 μM, 24 hours
Protocol: Cells were plated at 100,000 cells/well in Corning 6 cm tissue culture treated plates. […] Cells were collected and fixed in 1% paraformaldehyde. Cells were incubated with Alexa488 azide dye as described by Thermo Scientific. Cells were then incubated with […]-violet and RNase. Cells were analyzed on a BD Celesta and data compiled using FloJo and GraphPad.

[3] = tested on: MKN-1 cell loaded Hollow Fibers; assay: Mouse hollow fiber assay (CellTiter Glo); type: in vivo, mice; settings: 75, 100, 150 mg/kg twice daily, Day 16
Protocol: The mouse hollow fiber assay was conducted using three tumor cell lines, OVCAR-3 (ovarian), MKN-1 (gastric), and HCC-1569 (breast), 1e7 OVCAR-3, 5e6 MKN-1, and 1e7 HCC-1569 cells were loaded into Hollow Fibers, placed in cell culture dishes containing RPMI-1640 with 20% FCS and 1% penicillin/streptomycin, and were equilibrated in an incubator at 37 C, 5% CO2 overnight. On Day 0, three fibers were implanted in two different compartments: subcutaneous and intraperitoneal of twenty-four female NMRI nude mice ages 4-5 weeks. […] Female NMRI nude mice were implanted both subcutaneously and intraperitoneally with HCC-1569, MKN1, and OVCAR3 tumor cell-loaded Hollow Fibers on Day 0. The number of animals alive on Day 0 (implantation) and on Day 16 (necropsy) in each group is shown in parentheses in the legend.
MKN-1 cell loaded Hollow Fibers were implanted both subcutaneously and intraperitoneally into female NMRI nude mice on Day 0. Hollow Fibers were collected during necropsy on Day 16 and analyzed using a CellTiter Glo® assay.

[4] = Approximate solvent solubility of free base; type: physicochemical
Protocol: The following procedure was carried out: 25, 50 and 100 μL aliquots of the appropriate solvent system was added to 20 mg of free base. The experiments were checked for dissolution. Where dissolution was not observed, the experiments were stirred at 40° C. to check for dissolution at elevated temperature. Aliquots of solvent were added until dissolution was observed, or 2 mL of total solvent was added. Any clear solutions were uncapped and allowed to evaporate at ambient temperature (ca. 20° C.) and pressure. Any slurries were isolated by centrifugation and the solids were analyzed by XRPD.

[5] = biological target: T1, human OAT3 (Homo sapiens, UniProt Q8TCC7); assay: SLC transporter inhibition in HEK293 cells; type: in vitro ADME
T1 construct: expressed in transfected cells; host or cells: HEK293
T1 sequence (Q8TCC7 1-542): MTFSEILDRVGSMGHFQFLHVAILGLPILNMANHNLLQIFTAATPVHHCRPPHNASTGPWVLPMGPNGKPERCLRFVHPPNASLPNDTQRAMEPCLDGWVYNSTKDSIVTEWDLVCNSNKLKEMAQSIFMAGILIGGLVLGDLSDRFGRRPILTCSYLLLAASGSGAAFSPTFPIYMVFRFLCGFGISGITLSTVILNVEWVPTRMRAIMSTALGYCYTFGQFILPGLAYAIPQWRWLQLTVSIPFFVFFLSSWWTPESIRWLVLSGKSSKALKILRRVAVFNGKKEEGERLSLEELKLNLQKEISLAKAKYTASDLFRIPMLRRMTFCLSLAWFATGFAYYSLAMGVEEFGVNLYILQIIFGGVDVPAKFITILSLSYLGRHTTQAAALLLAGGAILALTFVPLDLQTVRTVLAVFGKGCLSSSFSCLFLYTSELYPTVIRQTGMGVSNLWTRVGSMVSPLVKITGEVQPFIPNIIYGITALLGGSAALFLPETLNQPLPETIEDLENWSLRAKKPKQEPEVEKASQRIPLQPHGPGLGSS

NS(=O)(=O)c1ccc(Nc2ncc3cc4n(c3n2)C2(CCCCC2)C(=O)NN4)cc1 [Compound I]
growth with both Compound I and a CDK4/6i ([1]; 300 nM each, 8 weeks): no noticeable growth after 8 weeks
time to CDK4/6i resistance ([1]; 300 nM with palbociclib or abemaciclib, up to 8 weeks): prolonged the time to CDK4/6i resistance
cell cycle distribution with increasing concentrations [2]: exit the S-phase and increasingly occupy the G0-G1 phase
tumor bioluminescence signal (CellTiter Glo) of Hollow Fibers [3]: only observed in mice administered Compound I intraperitoneally at 75 mg/kg twice per day
Solubility ([4]; 2-Methyl-THF): <10000 µg/mL
Solubility ([4]; 2-Propanol): <10000 µg/mL
Solubility ([4]; 2-Propanol:Water (80:20 % v/v)): <10000 µg/mL
Solubility ([4]; Acetone): <10000 µg/mL
Solubility ([4]; Anisole): <10000 µg/mL
Solubility ([4]; Ethanol): <10000 µg/mL
Solubility ([4]; Ethyl Acetate): <10000 µg/mL
Solubility ([4]; Methylethyl Ketone): <10000 µg/mL
Solubility ([4]; N,N-dimethylacetamide, organic solvent or mixture, thermodynamic from solid, read-out: Solubility): 22000 µg/mL (≈ 51.5 mM)
Solubility ([4]; Tetrahydrofuran): <10000 µg/mL
Solubility ([4]; Toluene): <10000 µg/mL
Solubility ([4]; dimethylsulfoxide, organic solvent or mixture, thermodynamic from solid, read-out: Solubility): 88000 µg/mL (≈ 206 mM)
Maximum Percent inhibition ([5]; OAT3, HEK293 cells): 86%
IC50 ([5]; OAT3, HEK293 cells, read-out: IC50): 4.01 µM
IC50 ([5]; read-out: OAT3 IC50): 4.01 µM
